{"source": "patent US11161862B2", "about": "“Phosphonium-ion tethered tetracycline drugs for treatment of cancer” (Oxford University Innovation Limited, priority 2017, dated 2021)", "note": "Where a name gives a salt, the structure may show the parent alone.", "data": [{"test_system": "MDA-231 cancer cells", "assay": "Inhibition of proliferation assay: cell confluence (IncuCyte live cell imaging)", "assay_type": "cell-based", "details": "MDA-231 cells; concentration 10 μM; IncuCyte imaging every 3 h over 4-5 d; relative confluence normalised to time zero", "source_text": "(§1) Inhibition of Proliferation Assay\n(§2) The confluence value is a surrogate for cell proliferation and growth. The value is expressed as a percent confluence, which represents the fraction of culture dish-surface that is occupied by cells. As the number of cells in the dish increases over time due to proliferation, so will their coverage of that surface increase. Expansion of the cell population on the cell culture-dish surface and confluence have mostly a linear relationship until the cells on the plate surface begin to reach saturation or maximum density.\n(§3) Confluence is determined based on image analysis. Image based software can identify objects in the image field base on changes to pixel density in a grey scale image. The software can then assign a mask to those pixels within the object. Objects can be ‘gated’ out based on size and shape. To determine cell confluence, images of cells are first masked as objects. The surface area of the image that is masked is measured and compared to the total surface area of the culture dish surface to obtain a percent confluence.\n(§4) MDA-231 cancer cells were obtained from ATCC. Cells were cultured in Dulbecco's Modified Eagle Medium (DMEM) supplemented with 10% Fetal Bovine Serum (FBS), 2 mM Glutamax, 1 mM Non Essential Amino Acid (NEAA) solution and 1 mM sodium pyruvate. […] Final DMSO concentrations were […]. Images were acquired with an IncuCyte Live Cell Imaging microscopy (Essen Bioscience) at every 3 h under cell culture conditions with 10× objective over 4-5 d. Cell confluence was calculated from one field of view per well using the IncuCyte in-built algorithm. Relative confluence values were obtained by normalising each value to the time zero value in each sample.", "units": {"% Confluence": "%"}, "values": [{"smiles": "C[C@H]1c2ccc(NC(=O)CCCCCCCCCC[P+](c3ccccc3)(c3ccccc3)c3cnn(C)c3)c(O)c2C(=O)C2=C(O)[C@]3(O)C(=O)C(C(N)=O)=C(O)[C@@H](N(C)C)[C@@H]3[C@@H](O)[C@@H]21.[Cl-]", "note": "[Example 12, (10-{[(5R,5aR,6S,6aR,7S,10aS)-9-carbamoyl-7-(dimethylamino)-1,6,8,10a,11-pentahydroxy-5-methyl-10,12-dioxo-5,5a,6,6a,7,10,10a,12-octahydrotetracen-2-yl]carbamoyl}decyl)(1-methyl-1H-pyrazol-4-yl)diphenylphosphonium chloride]", "% Confluence": 45.4}, {"smiles": "C[C@H]1c2ccc(NC(=O)CCCCCCC[P+](c3ccccc3)(c3ccccc3)c3cnn(C)c3)c(O)c2C(=O)C2=C(O)[C@]3(O)C(=O)C(C(N)=O)=C(O)[C@@H](N(C)C)[C@@H]3[C@@H](O)[C@@H]21.[Cl-]", "note": "[Example 8, (7-{[(5R,5aR,6S,6aR,7S,10aS)-9-carbamoyl-7-(dimethylamino)-1,6,8,10a,11-pentahydroxy-5-methyl-10,12-dioxo-5,5a,6,6a,7,10,10a,12-octahydrotetracen-2-yl]carbamoyl}heptyl)(1-methyl-1H-pyrazol-4-yl)diphenylphosphonium chloride]", "% Confluence": 45.6}, {"smiles": "C[C@H]1c2ccc(NC(=O)CCCCCCCCCCC[P+](C)(C)C)c(O)c2C(=O)C2=C(O)[C@]3(O)C(=O)C(C(N)=O)=C(O)[C@@H](N(C)C)[C@@H]3[C@@H](O)[C@@H]21.[Cl-]", "note": "[Example 6, (11-{[(5R,5aR,6S,6aR,7S,10aS)-9-carbamoyl-7-(dimethylamino)-1,6,8,10a,11-pentahydroxy-5-methyl-10,12-dioxo-5,5a,6,6a,7,10,10a,12-octahydrotetracen-2-yl]carbamoyl}undecyl)trimethylphosphonium chloride]", "% Confluence": 57.7}, {"smiles": "C[C@H]1c2cccc(O)c2C(=O)C2=C(O)[C@]3(O)C(=O)C(C(N)=O)=C(O)[C@@H](N(C)C)[C@@H]3[C@@H](O)[C@@H]21", "note": "[Doxycycline, reference compound]", "% Confluence": 98.7}, {"smiles": "C[C@H]1c2ccc(NC(=O)CCCCCCC[P+](C)(C)c3ccccc3)c(O)c2C(=O)C2=C(O)[C@]3(O)C(=O)C(C(N)=O)=C(O)[C@@H](N(C)C)[C@@H]3[C@@H](O)[C@@H]21.[Cl-]", "note": "[Example 3, (7-{[(5R,5aR,6S,6aR,7S,10aS)-9-carbamoyl-7-(dimethylamino)-1,6,8,10a,11-pentahydroxy-5-methyl-10,12-dioxo-5,5a,6,6a,7,10,10a,12-octahydrotetracen-2-yl]carbamoyl}heptyl)dimethylphenylphosphonium chloride]", "% Confluence": 62.5}, {"smiles": "COc1ccc([P+](CCCCCCCCCCCC(=O)Nc2ccc3c(c2O)C(=O)C2=C(O)[C@]4(O)C(=O)C(C(N)=O)=C(O)[C@@H](N(C)C)[C@@H]4[C@@H](O)[C@@H]2[C@H]3C)(c2ccc(OC)cc2)c2ccc(OC)cc2)cc1", "note": "[Example 1, (11-{[(5R,5aR,6S,6aR,7S,10aS)-9-carbamoyl-7-(dimethylamino)-1,6,8,10a,11-pentahydroxy-5-methyl-10,12-dioxo-5,5a,6,6a,7,10,10a,12-octahydrotetracen-2-yl]carbamoyl}undecyl)tris(4-methoxyphenyl)phosphonium formate]", "% Confluence": 17}, {"smiles": "C[C@H]1c2ccc(NC(=O)CCCCCCC[P+](C)(c3ccccc3)c3ccccc3)c(O)c2C(=O)C2=C(O)[C@]3(O)C(=O)C(C(N)=O)=C(O)[C@@H](N(C)C)[C@@H]3[C@@H](O)[C@@H]21.[Cl-]", "note": "[Example 2, (7-{[(5R,5aR,6S,6aR,7S,10aS)-9-carbamoyl-7-(dimethylamino)-1,6,8,10a,11-pentahydroxy-5-methyl-10,12-dioxo-5,5a,6,6a,7,10,10a,12-octahydrotetracen-2-yl]carbamoyl}heptyl)(methyl)diphenylphosphonium chloride]", "% Confluence": 91.7}, {"smiles": "Cc1cccc([P+](CCCCCCCCCCCC(=O)Nc2ccc3c(c2O)C(=O)C2=C(O)[C@]4(O)C(=O)C(C(N)=O)=C(O)[C@@H](N(C)C)[C@@H]4[C@@H](O)[C@@H]2[C@H]3C)(c2cccc(C)c2)c2cccc(C)c2)c1.[Cl-]", "note": "[Example 7, (11-{[(5R,5aR,6S,6aR,7S,10aS)-9-carbamoyl-7-(dimethylamino)-1,6,8,10a,11-pentahydroxy-5-methyl-10,12-dioxo-5,5a,6,6a,7,10,10a,12-octahydrotetracen-2-yl]carbamoyl}undecyl)tris(3-methylphenyl)phosphonium chloride]", "% Confluence": 29.4}, {"smiles": "C[C@H]1c2ccc(NC(=O)CCCCCCCC[P+](c3ccccc3)(c3ccccc3)c3cnn(C)c3)c(O)c2C(=O)C2=C(O)[C@]3(O)C(=O)C(C(N)=O)=C(O)[C@@H](N(C)C)[C@@H]3[C@@H](O)[C@@H]21.[Cl-]", "note": "[Example 9, (8-{[(5R,5aR,6S,6aR,7S,10aS)-9-carbamoyl-7-(dimethylamino)-1,6,8,10a,11-pentahydroxy-5-methyl-10,12-dioxo-5,5a,6,6a,7,10,10a,12-octahydrotetracen-2-yl]carbamoyl}octyl)(1-methyl-1H-pyrazol-4-yl)diphenylphosphonium chloride]", "% Confluence": 55.5}, {"smiles": "C[C@H]1c2ccc(NC(=O)CCCCCCCCCCC[P+](C)(c3ccccc3)c3ccccc3)c(O)c2C(=O)C2=C(O)[C@]3(O)C(=O)C(C(N)=O)=C(O)[C@@H](N(C)C)[C@@H]3[C@@H](O)[C@@H]21.[Cl-]", "note": "[Example 5, (11-{[(5R,5aR,6S,6aR,7S,10aS)-9-carbamoyl-7-(dimethylamino)-1,6,8,10a,11-pentahydroxy-5-methyl-10,12-dioxo-5,5a,6,6a,7,10,10a,12-octahydrotetracen-2-yl]carbamoyl}undecyl)(methyl)diphenylphosphonium chloride]", "% Confluence": 24.9}, {"smiles": "C[C@H]1c2ccc(NC(=O)CCCCCCCCC[P+](c3ccccc3)(c3ccccc3)c3cnn(C)c3)c(O)c2C(=O)C2=C(O)[C@]3(O)C(=O)C(C(N)=O)=C(O)[C@@H](N(C)C)[C@@H]3[C@@H](O)[C@@H]21.[Cl-]", "note": "[Example 11, (9-{[(5R,5aR,6S,6aR,7S,10aS)-9-carbamoyl-7-(dimethylamino)-1,6,8,10a,11-pentahydroxy-5-methyl-10,12-dioxo-5,5a,6,6a,7,10,10a,12-octahydrotetracen-2-yl]carbamoyl}nonyl)(1-methyl-1H-pyrazol-4-yl)diphenylphosphonium chloride]", "% Confluence": 70.1}, {"smiles": "C[C@H]1c2ccc(NC(=O)CCCCCCC[P+](C)(C)C)c(O)c2C(=O)C2=C(O)[C@]3(O)C(=O)C(C(N)=O)=C(O)[C@@H](N(C)C)[C@@H]3[C@@H](O)[C@@H]21.[Cl-]", "note": "[Example 4, (7-{[(5R,5aR,6S,6aR,7S,10aS)-9-carbamoyl-7-(dimethylamino)-1,6,8,10a,11-pentahydroxy-5-methyl-10,12-dioxo-5,5a,6,6a,7,10,10a,12-octahydrotetracen-2-yl]carbamoyl}heptyl)trimethylphosphonium chloride]", "% Confluence": 111.8}, {"smiles": "C[C@H]1c2ccc(NC(=O)CCCCCCCCCCC[P+](c3ccccc3)(c3ccccc3)c3cnn(C)c3)c(O)c2C(=O)C2=C(O)[C@]3(O)C(=O)C(C(N)=O)=C(O)[C@@H](N(C)C)[C@@H]3[C@@H](O)[C@@H]21.[Cl-]", "note": "[Example 10, (11-{[(5R,5aR,6S,6aR,7S,10aS)-9-carbamoyl-7-(dimethylamino)-1,6,8,10a,11-pentahydroxy-5-methyl-10,12-dioxo-5,5a,6,6a,7,10,10a,12-octahydrotetracen-2-yl]carbamoyl}undecyl)(1-methyl-1H-pyrazol-4-yl)diphenylphosphonium chloride]", "% Confluence": 12.4}, {"smiles": "CC(C)[P+](CCCCCCCCCCCC(=O)Nc1ccc2c(c1O)C(=O)C1=C(O)[C@]3(O)C(=O)C(C(N)=O)=C(O)[C@@H](N(C)C)[C@@H]3[C@@H](O)[C@@H]1[C@H]2C)(c1ccccc1)c1ccccc1", "note": "[Example 13, (11-{[(5R,5aR,6S,6aR,7S,10aS)-9-carbamoyl-7-(dimethylamino)-1,6,8,10a,11-pentahydroxy-5-methyl-10,12-dioxo-5,5a,6,6a,7,10,10a,12-octahydrotetracen-2-yl]carbamoyl}undecyl)diphenyl(propan-2-yl)phosphonium chloride]", "% Confluence": 35.1}]}, {"test_system": "MDA-231 cancer cells", "assay": "Inhibition of proliferation assay: cell confluence (IncuCyte live cell imaging)", "assay_type": "cell-based", "details": "MDA-231 cells; concentration 50 μM; IncuCyte imaging every 3 h over 4-5 d; relative confluence normalised to time zero", "source_text": "as §1, §2, §3, §4", "units": {"% Confluence": "%"}, "values": [{"smiles": "C[C@H]1c2cccc(O)c2C(=O)C2=C(O)[C@]3(O)C(=O)C(C(N)=O)=C(O)[C@@H](N(C)C)[C@@H]3[C@@H](O)[C@@H]21", "note": "[Doxycycline, reference compound]", "% Confluence": 91}]}]}
